Results from ChEMBL document CHEMBL4138119, “Anti-diabetic activity of fused PPARγ-SIRT1 ligands with limited body-weight gain by mimicking calorie restriction and decreasing SGK1 expression” (Eur J Med Chem, 2017).
The source made the active and inactive calls. The rule behind the calls is not given here.

Columns and labels:
[1] = target: T1, Peroxisome proliferator-activated receptor delta (Homo sapiens) (UniProt Q03181); assay: Transactivation of human PPARdelta at 10 uM
T1 sequence (whole entry): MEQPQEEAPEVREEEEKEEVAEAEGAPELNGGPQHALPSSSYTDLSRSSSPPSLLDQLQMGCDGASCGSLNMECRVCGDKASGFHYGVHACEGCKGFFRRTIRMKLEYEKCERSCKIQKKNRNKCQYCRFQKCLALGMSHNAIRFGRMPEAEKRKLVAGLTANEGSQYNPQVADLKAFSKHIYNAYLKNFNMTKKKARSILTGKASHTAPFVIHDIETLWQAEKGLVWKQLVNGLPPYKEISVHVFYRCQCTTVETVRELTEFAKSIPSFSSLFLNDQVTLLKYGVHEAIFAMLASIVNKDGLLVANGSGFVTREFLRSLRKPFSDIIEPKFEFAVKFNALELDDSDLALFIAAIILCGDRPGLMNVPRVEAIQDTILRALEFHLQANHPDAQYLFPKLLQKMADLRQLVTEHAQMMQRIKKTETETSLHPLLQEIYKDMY

[2] = target: T2, Peroxisome proliferator-activated receptor alpha (Homo sapiens) (UniProt Q07869); assay: Transactivation of human Gal4-fused PPARalpha LBD expressed in African green monkey COS7 cells after 24 hrs by luciferase reporter gene assay relative to WY14643; type: cell-based
T2 sequence (whole entry): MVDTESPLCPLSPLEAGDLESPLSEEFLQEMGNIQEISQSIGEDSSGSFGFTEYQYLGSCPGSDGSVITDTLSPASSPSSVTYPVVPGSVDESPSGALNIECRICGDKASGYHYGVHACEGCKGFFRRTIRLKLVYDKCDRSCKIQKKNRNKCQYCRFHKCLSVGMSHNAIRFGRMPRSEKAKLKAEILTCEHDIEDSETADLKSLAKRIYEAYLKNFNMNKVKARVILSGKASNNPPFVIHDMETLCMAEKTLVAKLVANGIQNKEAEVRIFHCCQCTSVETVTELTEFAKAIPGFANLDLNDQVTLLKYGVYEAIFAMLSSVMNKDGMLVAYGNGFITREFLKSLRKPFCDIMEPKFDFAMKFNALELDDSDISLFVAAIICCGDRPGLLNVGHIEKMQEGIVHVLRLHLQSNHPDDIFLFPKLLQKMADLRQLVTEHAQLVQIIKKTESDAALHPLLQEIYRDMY

[3] = target: T3, Peroxisome proliferator-activated receptor alpha (Homo sapiens, UniProt Q07869); assay: Transactivation of human Gal4-fused PPARalpha LBD expressed in African green monkey COS7 cells after 24 hrs by luciferase reporter gene assay; type: cell-based
T3 sequence (Q07869 whole entry): T2 sequence (whole entry)

[4] = target: T4, Peroxisome proliferator-activated receptor gamma (Homo sapiens, UniProt P37231); assay: Transactivation of human Gal4-fused PPARgamma LBD expressed in African green monkey COS7 cells after 24 hrs by luciferase reporter gene assay; type: cell-based
T4 sequence (P37231 whole entry): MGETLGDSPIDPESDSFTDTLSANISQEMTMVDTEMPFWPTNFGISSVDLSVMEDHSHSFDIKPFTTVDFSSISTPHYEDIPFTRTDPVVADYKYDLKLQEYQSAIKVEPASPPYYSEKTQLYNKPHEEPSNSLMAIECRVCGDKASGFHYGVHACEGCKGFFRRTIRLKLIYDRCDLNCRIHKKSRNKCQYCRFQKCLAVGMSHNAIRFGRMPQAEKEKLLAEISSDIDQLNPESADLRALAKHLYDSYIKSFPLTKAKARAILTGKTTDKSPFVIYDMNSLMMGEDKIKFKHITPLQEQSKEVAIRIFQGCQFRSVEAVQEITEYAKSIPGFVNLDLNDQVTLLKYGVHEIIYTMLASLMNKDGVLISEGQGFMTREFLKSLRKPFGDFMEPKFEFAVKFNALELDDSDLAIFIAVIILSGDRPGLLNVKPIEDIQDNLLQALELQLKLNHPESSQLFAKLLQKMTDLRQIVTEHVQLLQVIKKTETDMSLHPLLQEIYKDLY

[5] = target: T5, NAD-dependent protein deacetylase sirtuin-1 (Homo sapiens) (UniProt Q96EB6); assay: Activation of recombinant human SIRT1 at 10 uM using C-terminal AMC labeled Arg-His-Lys-Lys (Ac) as substrate after 30 mins by FLUOR DE LYS fluorescent assay relative to control
T5 sequence (whole entry): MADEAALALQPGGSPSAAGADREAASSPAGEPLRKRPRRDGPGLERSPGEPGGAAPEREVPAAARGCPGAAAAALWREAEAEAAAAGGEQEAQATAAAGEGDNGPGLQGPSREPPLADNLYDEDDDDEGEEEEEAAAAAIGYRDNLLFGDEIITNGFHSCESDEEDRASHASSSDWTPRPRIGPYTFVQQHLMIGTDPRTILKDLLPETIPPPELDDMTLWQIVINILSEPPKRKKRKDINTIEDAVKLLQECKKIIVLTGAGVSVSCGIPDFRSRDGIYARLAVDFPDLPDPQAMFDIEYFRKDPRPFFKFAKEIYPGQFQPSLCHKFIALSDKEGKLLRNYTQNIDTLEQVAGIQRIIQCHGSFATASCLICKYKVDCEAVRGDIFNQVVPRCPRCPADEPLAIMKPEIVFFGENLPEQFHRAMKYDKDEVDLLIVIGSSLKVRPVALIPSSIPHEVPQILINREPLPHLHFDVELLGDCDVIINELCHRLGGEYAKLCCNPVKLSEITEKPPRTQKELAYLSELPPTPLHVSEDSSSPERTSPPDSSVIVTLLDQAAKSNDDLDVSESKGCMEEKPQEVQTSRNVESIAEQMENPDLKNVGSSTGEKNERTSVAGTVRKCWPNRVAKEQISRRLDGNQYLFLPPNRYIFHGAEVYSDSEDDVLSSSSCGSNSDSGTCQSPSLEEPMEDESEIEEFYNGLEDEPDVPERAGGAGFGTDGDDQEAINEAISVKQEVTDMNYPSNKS

[6] = Modulation of SGK1 mRNA expression in HCCD cells at 20 uM after 24 hrs by RT-PCR method relative to control; type: functional, Homo sapiens
Mus musculus [7] = assay: Anti-diabetic activity in ob/ob mouse assessed as change in serum triglyceride levels at 8.4 uM/kg administered via oral gavage daily for 4 days measured on day 5 relative to control; type: functional
Mus musculus [8] = assay: Anti-diabetic activity in ob/ob mouse assessed as change in serum glucose levels at 8.4 uM/kg administered via oral gavage daily for 4 days measured on day 5 relative to control; type: functional
Mus musculus [9] = assay: Anti-diabetic activity in ob/ob mouse assessed as change in serum insulin levels at 8.4 uM/kg administered via oral gavage daily for 4 days measured on day 5 relative to control; type: functional
Mus musculus [10] = assay: Toxicity in ob/ob mouse assessed as change in body weight at 8.4 uM/kg administered via oral gavage daily for 4 days measured on day 5 relative to control; type: organism-based; conditions: in vivo, 96 h, 8.4 µmol/kg

SMILES | Activity [1] | Emax [2] | EC50 [3] | EC50 ([4]; read-out: EC50) | Activity [5] | Activity [6] | Activity (Mus musculus [7]) | Activity (Mus musculus [8]) | Activity (Mus musculus [9]) | Activity (Mus musculus [10]) | EC50 [4]
CCOC(=O)C(Cc1ccc(OCCn2c(=O)sc3cc(/C=C/c4cc(O)cc(O)c4)ccc32)cc1)OCC(F)(F)F (centres undefined) | inactive | 149% | 10000 nM | 80 nM | -28% | 83% | -25% | -40% | -41% | 56% | –
CCOC(=O)C(Cc1ccc(OCCn2c(=O)sc3cc(C(=O)/C=C/c4cc(OC)cc(OC)c4)ccc32)cc1)OCC(F)(F)F (centres undefined) | inactive | 21% | 10000 nM | 200 nM | 0% | -53% | -24% | 2% | 17% | 93% | –
CCOC(=O)C(Cc1ccc(OCCn2c(=O)sc3cc(C(=O)/C=C/c4cc(O)cc(O)c4)ccc32)cc1)OCC (centres undefined) | inactive | 42% | 10000 nM | 20 nM | 0% | 243% | -28% | -30% | -4% | 91% | –
CCOC(Cc1ccc(OCCn2c(=O)sc3cc(/C=C/c4cc(OC)cc(OC)c4)ccc32)cc1)C(=O)O (centres undefined) | inactive | 494% | 1000 nM | < 10 nM | – | – | -56% | -42% | -33% | 192% | –
CCOC(=O)C(Cc1ccc(OCCn2c(=O)sc3cc(C(=O)/C=C/c4cc(O)cc(O)c4)ccc32)cc1)OCC(F)(F)F (centres undefined) | inactive | 12% | 10000 nM | 30 nM | 24% | 180% | -8% | -5% | 11% | 75% | –
CCOC(Cc1ccc(OCCn2c(=O)sc3cc(/C=C/c4cc(OC)cc(OC)c4)ccc32)cc1)C(=O)NC (centres undefined) | inactive | 0% | 10000 nM | < 10 nM | 17% | -43% | -29% | -14% | -36% | 111% | –
CCOC(Cc1ccc(OCCn2c(=O)sc3cc(C(=O)/C=C/c4cc(OC)cc(OC)c4)ccc32)cc1)C(=O)O (centres undefined) | inactive | 53% | 10000 nM | 1000 nM | 23% | 736% | -31% | -27% | 18% | 150% | –
CCOC(=O)C(Cc1ccc(OCCn2c(=O)sc3cc(/C=C/c4cc(OC)cc(OC)c4)ccc32)cc1)OCC (centres undefined) | inactive | 149% | 2000 nM | < 10 nM | 13% | -23% | -35% | -36% | -28% | 79% | –
CCOC(=O)C(Cc1ccc(OCCn2c(=O)sc3cc(/C=C/c4cc(OC)cc(OC)c4)ccc32)cc1)OCC(F)(F)F (centres undefined) | inactive | 136% | 10000 nM | 50 nM | -7% | -62% | -3% | -11% | -14% | 61% | –
CCOC(Cc1ccc(OCCn2c(=O)sc3cc(/C=C/c4cc(O)cc(O)c4)ccc32)cc1)C(=O)O (centres undefined) | inactive | 29% | 10000 nM | 1000 nM | 92% | -39% | -52% | -45% | -40% | 110% | –
Cc1cccc(Nc2cc(Cl)nc(SCC(=O)O)n2)c1C [PIRINIXIC ACID] | – | – | – | – | – | – | – | – | – | – | Not Active
